The values below come from patent publication US8809355B2, “GABAA receptor modulators” (Innovationspatent Sverige AB, priority 2008, dated 2014).

By Ki is commonly meant a dissociation constant, usually derived from enzyme kinetics or from competition with a known ligand. High values mean a looser hold on the target, low ones a stronger hold on the target. By melting point is commonly meant the temperature of the solid-liquid transition.

The target of one series is benzodiazepine receptor. The experiment in a line: Displacement of 3H-flumazenil in rat cortical tissue (receptor binding). To be noted: for Ki: 3H-Flumazenil binding in vitro, rat cortical membranes, mean ± SD of three determinations. How it is done:
Affinity of test substances for the benzodiazepine receptor was determined in vitro by displacement of ^3H-flumazenil in rat cortical tissue.

A value given as a limit tells only on which side of the number the result lay.

Regarding `Cc1ccc(-n2nc3c4cc(CCc5cccc(O)c5)ccc4[nH]c(=O)n3c2=O)cc1` [Compound 14i, 9-[2-(3-hydroxyphenyl)ethyl]-2-(4-Methylphenyl)-2,6-dihydro[1,2,4]triazolo[4,3-c]-quinazoline-3,5-dione], the melting point was 300 °C (dec.). This molecule registered a Ki at benzodiazepine receptor of 6.2 nM.
The molecule `Cc1ccc(-n2nc3c4cc(CCc5ccccc5)ccc4[nH]c(=O)n3c2=O)cc1` [Compound 14a, 2-(4-Methylphenyl)-9-(2-phenylethyl)-2,6-dihydro[1,2,4]triazolo[4,3-c]-quinazoline-3,5-dione] had a melting point of 303 °C. Further, the Ki on benzodiazepine receptor is 4 ± 1.2 nM. Also, in the series with benzodiazepine receptor (ratio of Ki values, printed as 14a over 14b), the “fold difference in potency among the ethylene linked compounds, thiophene over phenyl” value was found to be 4 fold.
Take `Cc1ccc(-n2nc3c4cc(C#Cc5ccc(-c6ccccc6)cc5)ccc4[nH]c(=O)n3c2=O)cc1` [Compound 13g, 9-(Biphen-4-ylethynyl)-2-(4-methylphenyl)-2,6-dihydro[1,2,4]triazolo[4,3-c]-quinazoline-3,5-dione]: the melting point is > 350 °C (dec.).
Take `Cc1ccc(-n2nc3c4cc(CCc5ccncc5)ccc4[nH]c(=O)n3c2=O)cc1` [Compound 14e, 2-(4-Methylphenyl)-9-[2-(4-pyridyl)ethyl]-2,6-dihydro[1,2,4]triazolo[4,3-c]-quinazoline-3,5-dione]: the melting point amounted to 294 °C. This molecule came in with a Ki at benzodiazepine receptor of 0.17 ± 0.03 nM.
In turn, `Cc1ccc(-n2nc3c4cc(Cc5ccsc5)ccc4[nH]c(=O)n3c2=O)cc1` [Compound 16c, 2-(4-Methylphenyl)-9-(3-thienylmethyl)-2,6-dihydro[1,2,4]triazolo[4,3-c]quinazoline-3,5-dione] gave a melting point of 287 °C. At benzodiazepine receptor, this molecule gave an inhibition constant Ki of 0.23 ± 0.18 nM. Further, the “fold higher affinity of methylene linked thiophene compared to phenyl 16a” value in the series on benzodiazepine receptor (ratio of Ki values, vs 16a) worked out at 5 fold.
With `Cc1ccc(-n2nc3c4cc(C#Cc5ccc(Oc6ccccc6)cc5)ccc4[nH]c(=O)n3c2=O)cc1` [Compound 13f, 2-(4-Methylphenyl)-9-[(4-phenoxyphenyl)ethynyl]-2,6-dihydro[1,2,4]triazolo[4,3-c]-quinazoline-3,5-dione], the melting point came out at 216 °C.
`CCOC(=O)n1c(=S)[nH]c2ccc(C)cc2c1=O` [Compound 3b, Ethyl 6-methyl-4-oxo-2-thioxo-1,4-dihydroquinazoline-3(2H)-carboxylate]: the melting point was determined as 164 °C. In addition, the inhibition constant Ki at benzodiazepine receptor is over 30000 nM. Also, the “affinity for the BZD receptor (in words)” value with benzodiazepine receptor (discussion of Table 1) was “low affinity”.
With `Cc1ccc(-n2nc3c4cc(C#Cc5cccc(O)c5)ccc4[nH]c(=O)n3c2=O)cc1` [Compound 13i, 9-(3-Hydroxyphenyl)ethynyl-2-(4-methylphenyl)-2,6-dihydro[1,2,4]triazolo[4,3-c]-quinazoline-3,5-dione], the melting point is 300 °C (dec.).
On the same count and under the same terms, the same measure for `Cc1ccc(-n2nc3c4cc(C#Cc5ccsc5)ccc4[nH]c(=O)n3c2=O)cc1` [Compound 13b, 2-(4-Methylphenyl)-9-(3-thienylethynyl)-2,6-dihydro[1,2,4]triazolo[4,3-c]-quinazoline-3,5-dione]: > 320 °C (dec.).
Take `O=c1[nH]c2ccc(Br)cc2c2nn(-c3ccccc3)c(=O)n12` [Compound 8b, 9-Bromo-2-phenyl-2,6-dihydro[1,2,4]triazolo[4,3-c]quinazoline-3,5-dione]: the melting point came to 405 °C. Besides, at benzodiazepine receptor, the Ki is 0.47 ± 0.09 nM.
The molecule `Cc1ccc(-n2nc3c4cc(Cc5cccc(F)c5)ccc4[nH]c(=O)n3c2=O)cc1` [Compound 16b, 9-(3-Fluorobenzyl)-2-(4-methylphenyl)-2,6-dihydro[1,2,4]triazolo[4,3-c]quinazoline-3,5-dione] came in with a melting point of 324 °C. Also, the Ki at benzodiazepine receptor is 2.1 ± 0.3 nM.
Taken in the same sequence, the figures for `O=c1[nH]c2ccc(Br)cc2c2nn(-c3ccc(Cl)cc3)c(=O)n12` [Compound 8c, 9-Bromo-2-(4-chlorophenyl)-2,6-dihydro[1,2,4]triazolo[4,3-c]quinazoline-3,5-dione] were 387 °C (dec.) and 0.6 ± 0.26 nM.
The corresponding values for `Cc1ccc(-n2nc3c4cc(C#Cc5ccccc5)ccc4[nH]c(=O)n3c2=O)cc1` [Compound 13a, 2-(4-Methylphenyl)-9-phenylethynyl-2,6-dihydro[1,2,4]triazolo[4,3-c]-quinazoline-3,5-dione] are > 300 °C (dec.) and 40 nM.
Taken in the same sequence, the figures for `Cc1ccc(-n2nc3c4cc(Cc5ccccc5)ccc4[nH]c(=O)n3c2=O)cc1` [Compound 16a, 9-Benzyl-2-(4-methylphenyl)-2,6-dihydro[1,2,4]triazolo[4,3-c]quinazoline-3,5-dione] were 299 °C and about 1 nM.
Molecule `Cc1ccc(-n2nc3c4cc(C#Cc5cccnc5)ccc4[nH]c(=O)n3c2=O)cc1` [Compound 13d, 2-(4-Methylphenyl)-9-(pyridin-3-ylethynyl)-2,6-dihydro[1,2,4]triazolo[4,3-c]-quinazoline-3,5-dione] displayed a melting point of 339 °C.
As to `Cc1ccc(-n2nc3c4cc(CCc5cccnc5)ccc4[nH]c(=O)n3c2=O)cc1` [Compound 14d, 2-(4-Methylphenyl)-9-[2-(3-pyridyl)ethyl]-2,6-dihydro[1,2,4]triazolo[4,3-c]-quinazoline-3,5-dione], the melting point came out at 292 °C. The affinity on benzodiazepine receptor, expressed as Ki, was 0.2 ± 0.04 nM.
The corresponding values for `Cc1ccc2[nH]c(=O)n3c(=O)n(-c4ccccc4)nc3c2c1` [Compound 8e, 9-Methyl-2-phenyl-2,6-dihydro[1,2,4]triazolo[4,3-c]quinazoline-3,5-dione] are 330 °C (dec.) and 0.62 ± 0.13 nM.
With `Cc1ccc(-n2nc3c4cc(CCc5ccsc5)ccc4[nH]c(=O)n3c2=O)cc1` [Compound 14b, 2-(4-Methylphenyl)-9-[2-(3-thienyl)ethyl]-2,6-dihydro[1,2,4]triazolo[4,3-c]-quinazoline-3,5-dione], the melting point was 281 °C. At benzodiazepine receptor, the affinity, expressed as Ki, was 0.94 ± 0.27 nM.
Molecule `Cc1ccc(-n2nc3c4cc(C#Cc5ccccn5)ccc4[nH]c(=O)n3c2=O)cc1` [Compound 13c, 2-(4-Methylphenyl)-9-(pyridin-2-ylethynyl)-2,6-dihydro[1,2,4]triazolo[4,3-c]-quinazoline-3,5-dione] had a melting point of 330 °C.
On to `Cc1ccc(-n2nc3c4cc(CCc5ccccn5)ccc4[nH]c(=O)n3c2=O)cc1` [Compound 14c, 2-(4-Methylphenyl)-9-[2-(2-pyridyl)ethyl]-2,6-dihydro[1,2,4]triazolo[4,3-c]-quinazoline-3,5-dione], for which the melting point is > 300 °C (dec.). Moreover, affinity at benzodiazepine receptor was put at a Ki of 0.53 ± 0.11 nM.
`Cc1ccc(-n2nc3c4cc(C#Cc5ccncc5)ccc4[nH]c(=O)n3c2=O)cc1` [Compound 13e, 2-(4-Methylphenyl)-9-(pyridin-4-ylethynyl)-2,6-dihydro[1,2,4]triazolo[4,3-c]-quinazoline-3,5-dione] had a melting point of 330 °C.
`Cc1ccc(-n2nc3c4cc(Br)ccc4[nH]c(=O)n3c2=O)cc1` [Compound 8a, 9-Bromo-2-(4-methylphenyl)-2,6-dihydro[1,2,4]triazolo[4,3-c]quinazoline-3,5-dione] registered a melting point of 369 °C. This molecule returned a Ki on benzodiazepine receptor of 0.24 ± 0.07 nM.
The corresponding values for `Cc1ccc(-n2nc3c4cc(CCc5ccc(-c6ccccc6)cc5)ccc4[nH]c(=O)n3c2=O)cc1` [Compound 14g] are 345 °C and 1570 ± 150 nM.
The corresponding values for `Cc1ccc(-n2nc3c4cc(CCc5ccc(Oc6ccccc6)cc5)ccc4[nH]c(=O)n3c2=O)cc1` [Compound 14f, 2-(4-Methylphenyl)-9-[2-(4-phenoxyphenyl)ethyl]-2,6-dihydro[1,2,4]triazolo[4,3-o]-quinazoline-3,5-dione] are 213 °C and 123 ± 12 nM.
Taken in the same sequence, the figures for `O=c1[nH]c2ccc(Br)cc2c2nn(-c3ccccc3F)c(=O)n12` [Compound 8d, 9-Bromo-2-(2-fluorophenyl)-2,6-dihydro[1,2,4]triazolo[4,3-c]quinazoline-3,5-dione] were 347 °C (dec.) and 0.2 ± 0.07 nM.
As for `Cc1ccc(-n2nc3c4cc(/C=C/C(=O)OCc5ccccc5)ccc4[nH]c(=O)n3c2=O)cc1` [Compound 17, Benzyl (2E)-3-[2-(4-methylphenyl)-3,5-dioxo-2,6-dihydro[1,2,4]triazolo[4,3-c]quinazolin-9-yl]acrylate], the melting point is 242 °C.
On to `Cc1ccc(-n2nc3c4cc(CCC(=O)O)ccc4[nH]c(=O)n3c2=O)cc1` [Compound 18, 3-[2-(4-Methylphenyl)-3,5-dioxo-2,6-dihydro[1,2,4]triazolo[4,3-c]quinazolin-9-yl]propanoic acid], for which the melting point turned out to be 275 °C. Also, the Ki on benzodiazepine receptor is 1.4 nM.
